Converted amounts (≈) assume the structure as drawn.
Tests used:
KB = assay: Cytotoxicity, 50% inhibition of cell growth, KB; format: cell-based; settings: Homo sapiens, read-out: IC50 (50% inhibition of cell growth)
Experimental: (§1) The cytoxicity results are recorded hereafter as the IC50 in μg/ml (concentration corresponding to a 50% inhibition of cell growth) on 6 tumoural lines namely KB, P388, P388/dox (resistant to doxorubicin), B16 and H429 and NSCLC-N6, which are human cells of non-small cell bronchopulmonary carcinoma type.
(§2) The determinations were carried out according to the protocol given in Cancer Chemother. Pharmacol. (1991) 28:283-292 by Roussakis et al.

P388 (p388s) = assay: Cytotoxicity, 50% inhibition of cell growth, P388; format: cell-based; settings: Mus musculus, P388/S; p388s; read-out: IC50 (50% inhibition of cell growth)
Experimental: as §1, §2

P388/dox (p388r) = assay: Cytotoxicity, 50% inhibition of cell growth, P388/dox (resistant to doxorubicin); format: cell-based; settings: Mus musculus
Experimental: as §1, §2

[1] = tested on: Plasmodium vinckei petteri; assay: Study of the parasitic stage susceptible to bistramides; format: in vivo, Plasmodium vinckei petteri in SWISS female white mice; settings: for patent period: time necessary for the parasitemia to reach 1%: 15 mg/kg, control 5 D
Experimental: In order to appreciate the parasitic stage or stages the most susceptible to the action of the bistramides of the invention, the effect of these bistramides was studied on each parasitic stage predominant during the cell cycle for a given species of Plasmodium.
The results given hereafter concern the effect of bistramide B on the parasitic stages of Plasmodium vinckei petteri.
After infestation of the mice, five batches of five mice are constituted. Each batch is treated with a dose of 15 mg/kg of bistramide D at the moment when one of the stages predominates.
In addition, the following batches are prepared: one control batch, one batch of merozoites, one ring batch, one batch of young trophozoites, one batch of middle trophozoites and one batch of old trophozoites.
The following are evaluated: the retardation of parasitemia or the patent period as the time in days necessary for the parasitemia to reach 1%.

[2] = tested on: Plasmodium vinckei petteri; assay: Comparison of monodose and multidose therapeutic schema; format: in vivo, Plasmodium vinckei petteri in SWISS female white mice
Experimental: The object is to monitor the parasitemia on a daily basis and to evaluate the inhibition of the parasitemia according to the therapeutic schema adopted for the treatment. The following are shown: the morphological modifications of the parasite by the parasitic formula, calculation of the parasitic formula is also carried out on smears and allows the evaluation of each stage:ring, young trophozoite, middle trophozoite, old trophozite for 100 red blood corpuscles.
a) after infestation, three batches of five mice are constituted, namely
a so-called monodose batch, for which a single injection of bistramide D (15 mg/kg) is given to the mouse on D0
a so-called multidose batch, where the injection of bistramide D is carried out by administering five doses on D0, D1, D2, D3, D4 respectively (total dose 15 mg/kg)
b) the preparation and reading of the smears is carried out every day for 21 days.
The percentage of parasitemia and the percentage inhibition of the development of the parasite is determined for each batch.

Work on `C/C=C/C(O)CC1CCC(C)C(CC(=O)NCC(O)C(C)C(=O)NCCCC2OC3(CCCC(CCC(C)/C=C(\C)C(C)O)O3)CCC2C)O1` (centres unmarked) [Bistramide D] yielded an IC50 (KB) of 10 µg/mL (≈ 14.1 µM), an IC50 (P388 (p388s)) of 0.36 µg/mL (≈ 0.509 µM) and an IC50 (P388/dox (p388r)) of 5.82 µg/mL (≈ 8.23 µM). The “stage selectivity / significance versus control batch” value ([1]; KRUSKAL-WALLIS unilateral test, middle and old trophozoite) was “selective activity”, the “patent period: time necessary for the parasitemia to reach 1%” value (from here on “patent period … to reach 1%”) ([1]; merozoite batch) was 5 D and the “patent period … to reach 1%” value ([1]; middle trophozoite batch) was 6.25 D. For the same compound, the “patent period … to reach 1%” value ([1]; old trophozoite batch) was 6.2 D, the “patent period … to reach 1%” value ([1]; ring batch) was 5.4 D and the “patent period … to reach 1%” value ([1]; young trophozoite batch) was 5.6 D. The “percentage inhibition of the development of the parasite” value (from here on “percentage inhibition”) ([2]; Monodose (15 mg/kg on D0), D3) was 51.5%, the parasitemia ([2]; Monodose (15 mg/kg on D0), D3, controls 0.33) was 0.16% and the “percentage inhibition” value ([2]; Monodose (15 mg/kg on D0), D4) was 33.3%. The parasitemia ([2]; Monodose (15 mg/kg on D0), D4, controls 1.2) was 0.80%, the “percentage inhibition” value ([2]; Monodose (15 mg/kg on D0), D5) was 36.3% and the parasitemia ([2]; Monodose (15 mg/kg on D0), D5, controls 5.5) was 3.5%. The “percentage inhibition” value ([2]; Monodose (15 mg/kg on D0), D7) was 0%, the parasitemia ([2]; Monodose (15 mg/kg on D0), D7, controls 50) was 64% and the “percentage inhibition” value ([2]; Monodose (15 mg/kg on D0), D8) was 16.4%. The parasitemia ([2]; Monodose (15 mg/kg on D0), D8, controls 67) was 56%, the “percentage inhibition” value ([2]; Monodose (15 mg/kg on D0), D9) was 12.5% and the parasitemia ([2]; Monodose (15 mg/kg on D0), D9, controls 48) was 42%. For the same compound, the “percentage inhibition” value ([2]; Monodose (15 mg/kg on D0), D10) was 0%, the parasitemia ([2]; Monodose (15 mg/kg on D0), D10, controls 1) was 1% and the “parasitic formula, old trophozoite (OT)” value ([2]; Monodose, D5, control 3%) was 9%. For the same compound, the “parasitic formula, middle trophozoite (MT)” value (“parasitic formula … (MT)” below) ([2]; Monodose, D5, control 7%) was 14%, the “parasitic formula, young trophozoite (YT)” value (“parasitic formula … (YT)” for short) ([2]; Monodose, D5, control 17.5%) was 37% and the “parasitic formula, ring stage (R)” value ([2]; Monodose, D5, control 72.5%) was 40%. The “parasitic formula, old trophozoite (OT)” value ([2]; Monodose, D7, control 10%) was 6%, the “parasitic formula … (MT)” value ([2]; Monodose, D7, control 15%) was 14% and the “parasitic formula … (YT)” value ([2]; Monodose, D7, control 17%) was 31%. The “parasitic formula, ring stage (R)” value ([2]; Monodose, D7, control 58%) was 47%, the “parasitic formula, old trophozoite (OT)” value ([2]; Multidose, D5, control 3%) was 7% and the “parasitic formula … (MT)” value ([2]; Multidose, D5, control 7%) was 40%. The “parasitic formula … (YT)” value ([2]; Multidose, D5, control 17.5%) was 28%, the “parasitic formula, ring stage (R)” value ([2]; Multidose, D5, control 72.5%) was 25% and the “parasitic formula, old trophozoite (OT)” value ([2]; Multidose, D7, control 10%) was 93%. For the same compound, the “parasitic formula … (MT)” value ([2]; Multidose, D7, control 15%) was 0%, the “parasitic formula … (YT)” value ([2]; Multidose, D7, control 17%) was 0% and the “parasitic formula, ring stage (R)” value ([2]; Multidose, D7, control 58%) was 7%. For the same compound, the “percentage inhibition” value ([2]; Multidoses (D0-D4, total 15 mg/kg), D3) was 63.6%, the parasitemia ([2]; Multidoses (D0-D4, total 15 mg/kg), D3, controls 0.33) was 0.12% and the “percentage inhibition” value ([2]; Multidoses (D0-D4, total 15 mg/kg), D4) was 83.3%. For the same compound, the parasitemia ([2]; Multidoses (D0-D4, total 15 mg/kg), D4, controls 1.2) was 0.2%, the “percentage inhibition” value ([2]; Multidoses (D0-D4, total 15 mg/kg), D5) was 70.9% and the parasitemia ([2]; Multidoses (D0-D4, total 15 mg/kg), D5, controls 5.5) was 1.6%. The “percentage inhibition” value ([2]; Multidoses (D0-D4, total 15 mg/kg), D7) was 85.2%, the parasitemia ([2]; Multidoses (D0-D4, total 15 mg/kg), D7, controls 50) was 7.4% and the “percentage inhibition” value ([2]; Multidoses (D0-D4, total 15 mg/kg), D8) was 0%. The parasitemia ([2]; Multidoses (D0-D4, total 15 mg/kg), D8, controls 67) was 74%, the “percentage inhibition” value ([2]; Multidoses (D0-D4, total 15 mg/kg), D9) was 0% and the parasitemia ([2]; Multidoses (D0-D4, total 15 mg/kg), D9, controls 48) was 67%. The “percentage inhibition” value ([2]; Multidoses (D0-D4, total 15 mg/kg), D10) was 0%, the parasitemia ([2]; Multidoses (D0-D4, total 15 mg/kg), D10, controls 1) was 30% and the “duration of the action” value ([2]; after last injection on D4, multidose batch) was “about 3 days”. The “effect on Plasmodium from D8” value ([2]; from D8) was “apparently being no longer effected” and the “parasitemia of monodose batch versus control batch” value ([2]; monodose batch, D4) was “no difference is observed”.
